Test results: patent US20180320217A1, “METHODS FOR SAMPLING AND MEASURING ORAL LAVAGE PROTEINS” (The Procter & Gamble Company, priority 2017, published 2018)
Where a name gives a salt, the structure may show the parent alone.

What was measured:
[1] = tested on: Malate dehydrogenase and diaphorase; assay: Formation of formazan dyes: Malate dehydrogenase and diaphorase, absence of malate (TABLE 9); assay type: biochemical, pig heart
[2] = Formation of formazan dyes: NADH, malate and 1-methoxy PMS (TABLE 16); assay type: biochemical; settings: NADH, malate and 1-methoxy PMS, mean of three experiments
[3] = tested on: diaphorase; assay: Effect of concentrations of tetrazolium salts on formation of formazan dyes (FIGS. 4A-4G); assay type: biochemical; settings: 15 mM NADH+H, 20 μg diaphorase, pH 7.5; FIGS. 4A to 4G
Protocol: On the idea that higher concentrations of tetrazolium salts in the assay buffer would likely result in more formazan dyes in the reaction, various concentrations of tetrazolium salts were added to a reaction buffer and the formation of formazan dyes were measured at 0, 30 and 60 minutes. […] The reactions were performed at room temperature. Absorbance was taken at 0, 30 and 60 minutes.

[4] = tested on: oral lavage; assay: Formation of formazan dyes: oral lavage, malate and 1-Methoxy PMS (TABLE 20); assay type: biochemical, human; settings: oral lavage, malate and 1-Methoxy PMS, mean of three experiments
[5] = tested on: diaphorase; assay: Formation of formazan dyes: only diaphorase and malate (TABLE 14); assay type: biochemical, Clostridium kluyveri; settings: mean of three experiments
[6] = tested on: diaphorase; assay: Formation of formazan dyes: NADH and diaphorase, absence of malate (TABLE 7); assay type: biochemical, Clostridium kluyveri; settings: NADH and diaphorase, absence of malate
[7] = tested on: Malate dehydrogenase and diaphorase; assay: Formation of formazan dyes: Malate dehydrogenase, diaphorase and malate (TABLE 10); assay type: biochemical, pig heart
[8] = tested on: oral lavage; assay: Formation of formazan dyes: oral lavage and 1-Methoxy PMS, absence of malate (TABLE 19); assay type: biochemical, human; settings: oral lavage and 1-Methoxy PMS, absence of malate, mean of three experiments
[9] = Formation of formazan dyes: NADH and 1-methoxy PMS, absence of malate (TABLE 15); assay type: biochemical; settings: NADH and 1-methoxy PMS, absence of malate, mean of three experiments
[10] = molecular target: T1, Malate dehydrogenase (Sus scrofa, UniProt P00346); assay: Formation of formazan dyes: Malate dehydrogenase, malate and 1-Methoxy PMS (TABLE 18); assay type: biochemical, pig heart; design: L-malate dehydrogenase (pig heart); purchased Sigma-Aldrich 10127248001 / 10127914001; settings: Malate dehydrogenase, malate and 1-Methoxy PMS, mean of three experiments
T1 sequence (P00346 25-338): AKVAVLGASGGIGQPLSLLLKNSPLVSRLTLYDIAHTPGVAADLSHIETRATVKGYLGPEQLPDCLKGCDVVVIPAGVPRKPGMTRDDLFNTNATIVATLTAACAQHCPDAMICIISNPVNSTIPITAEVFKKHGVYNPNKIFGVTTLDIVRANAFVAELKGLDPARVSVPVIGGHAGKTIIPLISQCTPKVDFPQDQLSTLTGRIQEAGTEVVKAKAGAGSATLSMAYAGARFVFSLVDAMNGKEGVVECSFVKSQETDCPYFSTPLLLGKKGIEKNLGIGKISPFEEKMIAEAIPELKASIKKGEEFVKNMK

[11] = molecular target: T1, Malate dehydrogenase; assay: Formation of formazan dyes: Malate dehydrogenase and 1-Methoxy PMS, absence of malate (TABLE 17); assay type: biochemical, pig heart; design: L-malate dehydrogenase (pig heart); purchased Sigma-Aldrich 10127248001 / 10127914001; settings: Malate dehydrogenase and 1-Methoxy PMS, absence of malate, mean of three experiments
[12] = tested on: diaphorase; assay: Formation of formazan dyes: NADH, diaphorase and malate (TABLE 8); assay type: biochemical, Clostridium kluyveri; settings: NADH, diaphorase and malate

Cc1nc(-[n+]2nc(-c3cccc(OCC(=O)O)c3)nn2-c2ccc(S(=O)(=O)[O-])cc2)sc1C [MTS, 3-(4,5-dimethylthiazol-2-yl)-5-(3-carboxymethoxyphenyl)-2-(4-sulfophenyl)-2H-tetrazolium, inner salt]
Formation of formazan dyes, absorbance, Means 0 h ([1]; Malate dehydrogenase and diaphorase, absence of malate, 0 h): 0.17 | Formation of formazan dyes, absorbance, Means 1 h ([1]; Malate dehydrogenase and diaphorase, absence of malate, 1 h): 0.24 | Formation of formazan dyes, absorbance, Means 2 h ([1]; Malate dehydrogenase and diaphorase, absence of malate, 2 h): 0.22 | Formation of formazan dyes, absorbance, Means 3 h ([1]; Malate dehydrogenase and diaphorase, absence of malate, 3 h): 0.25 | Formation of formazan dyes, absorbance, Means 4 h ([1]; Malate dehydrogenase and diaphorase, absence of malate, 4 h): 0.21 | Formation of formazan dyes, absorbance, Means 6 h ([1]; Malate dehydrogenase and diaphorase, absence of malate, 6 h): 0.22 | Formation of formazan dyes, absorbance, Means 8 h ([1]; Malate dehydrogenase and diaphorase, absence of malate, 8 h): 0.23 | Formation of formazan dyes, absorbance, Means 10 h ([1]; Malate dehydrogenase and diaphorase, absence of malate, 10 h): 0.26 | Formation of formazan dyes, absorbance, Means 12 h ([1]; Malate dehydrogenase and diaphorase, absence of malate, 12 h): 0.25 | reduction of tetrazolium dye in the absence of substrate malate ([1]; malate dehydrogenase and diaphorase (TABLE 9)): remained largely in oxidized forms | Absorbance, formation of formazan dyes (Means) ([2]; 0 h): 2.33 | Absorbance, formation of formazan dyes (Means) ([2]; 1 h): 2.41 | Absorbance, formation of formazan dyes (Means) ([2]; 2 h): 2.44 | Absorbance, formation of formazan dyes (Means) ([2]; 3 h): 2.47 | Absorbance, formation of formazan dyes (Means) ([2]; 4 h): 2.27 | Absorbance, formation of formazan dyes (Means) ([2]; 6 h): 2.38 | Absorbance, formation of formazan dyes (Means) ([2]; 8 h): 2.41 | Absorbance, formation of formazan dyes (Means) ([2]; 10 h): 2.45 | Absorbance, formation of formazan dyes (Means) ([2]; 12 h): 2.40 | concentration of tetrazolium salt at which absorbance reached peaks [3]: around 1.5 mM | Absorbance, formation of formazan dyes (Means) ([4]; 0 h): 0.78 | Absorbance, formation of formazan dyes (Means) ([4]; 1 h): 1.33 | Absorbance, formation of formazan dyes (Means) ([4]; 2 h): 1.69 | Absorbance, formation of formazan dyes (Means) ([4]; 3 h): 1.90 | Absorbance, formation of formazan dyes (Means) ([4]; 4 h): 1.87 | Absorbance, formation of formazan dyes (Means) ([4]; 6 h): 2.27 | Absorbance, formation of formazan dyes (Means) ([4]; 8 h): 2.60 | Absorbance, formation of formazan dyes (Means) ([4]; 10 h): 2.89 | Absorbance, formation of formazan dyes (Means) ([4]; 12 h): 3.22 | Absorbance, formation of formazan dyes (Means) ([5]; 0 h): 0.16 | Absorbance, formation of formazan dyes (Means) ([5]; 1 h): 0.22 | Absorbance, formation of formazan dyes (Means) ([5]; 2 h): 0.27 | Absorbance, formation of formazan dyes (Means) ([5]; 3 h): 0.32 | Absorbance, formation of formazan dyes (Means) ([5]; 4 h): 0.46 | Absorbance, formation of formazan dyes (Means) ([5]; 6 h): 0.57 | Absorbance, formation of formazan dyes (Means) ([5]; 8 h): 0.68 | Absorbance, formation of formazan dyes (Means) ([5]; 10 h): 0.79 | Absorbance, formation of formazan dyes (Means) ([5]; 12 h): 0.93 | Formation of formazan dyes, absorbance, Means 0 h ([6]; 0 h): 3.21 | Formation of formazan dyes, absorbance, Means 1 h ([6]; 1 h): 3.24 | Formation of formazan dyes, absorbance, Means 2 h ([6]; 2 h): 3.22 | Formation of formazan dyes, absorbance, Means 3 h ([6]; 3 h): 3.20 | Formation of formazan dyes, absorbance, Means 4 h ([6]; 4 h): 3.27 | Formation of formazan dyes, absorbance, Means 6 h ([6]; 6 h): 3.29 | Formation of formazan dyes, absorbance, Means 8 h ([6]; 8 h): 3.28 | Formation of formazan dyes, absorbance, Means 10 h ([6]; 10 h): 3.28 | Formation of formazan dyes, absorbance, Means 12 h ([6]; 12 h): 3.28 | Formation of formazan dyes, absorbance, Means 0 h ([7]; Malate dehydrogenase, diaphorase and malate, 0 h): 1.72 | Formation of formazan dyes, absorbance, Means 1 h ([7]; Malate dehydrogenase, diaphorase and malate, 1 h): 2.67 | Formation of formazan dyes, absorbance, Means 2 h ([7]; Malate dehydrogenase, diaphorase and malate, 2 h): 2.93 | Formation of formazan dyes, absorbance, Means 3 h ([7]; Malate dehydrogenase, diaphorase and malate, 3 h): 3.12 | Formation of formazan dyes, absorbance, Means 4 h ([7]; Malate dehydrogenase, diaphorase and malate, 4 h): 3.48 | Formation of formazan dyes, absorbance, Means 6 h ([7]; Malate dehydrogenase, diaphorase and malate, 6 h): 3.67 | Formation of formazan dyes, absorbance, Means 8 h ([7]; Malate dehydrogenase, diaphorase and malate, 8 h): 3.73 | Formation of formazan dyes, absorbance, Means 10 h ([7]; Malate dehydrogenase, diaphorase and malate, 10 h): 3.74 | Formation of formazan dyes, absorbance, Means 12 h ([7]; Malate dehydrogenase, diaphorase and malate, 12 h): 3.71 | conversion to reduced formazan dyes ([7]; malate dehydrogenase, diaphorase and malate (TABLE 10)): converted to reduced formazan dyes in a time-dependent manner | Absorbance, formation of formazan dyes (Means) ([8]; 0 h): 0.87 | Absorbance, formation of formazan dyes (Means) ([8]; 1 h): 1.50 | Absorbance, formation of formazan dyes (Means) ([8]; 2 h): 1.82 | Absorbance, formation of formazan dyes (Means) ([8]; 3 h): 2.08 | Absorbance, formation of formazan dyes (Means) ([8]; 4 h): 1.94 | Absorbance, formation of formazan dyes (Means) ([8]; 6 h): 2.32 | Absorbance, formation of formazan dyes (Means) ([8]; 8 h): 2.51 | Absorbance, formation of formazan dyes (Means) ([8]; 10 h): 2.66 | Absorbance, formation of formazan dyes (Means) ([8]; 12 h): 2.74 | Absorbance, formation of formazan dyes (Means) ([9]; 0 h): 2.31 | Absorbance, formation of formazan dyes (Means) ([9]; 1 h): 2.55 | Absorbance, formation of formazan dyes (Means) ([9]; 2 h): 2.60 | Absorbance, formation of formazan dyes (Means) ([9]; 3 h): 2.59 | Absorbance, formation of formazan dyes (Means) ([9]; 4 h): 2.63 | Absorbance, formation of formazan dyes (Means) ([9]; 6 h): 2.65 | Absorbance, formation of formazan dyes (Means) ([9]; 8 h): 2.69 | Absorbance, formation of formazan dyes (Means) ([9]; 10 h): 2.67 | Absorbance, formation of formazan dyes (Means) ([9]; 12 h): 2.65 | Absorbance, formation of formazan dyes (Means) ([10]; 0 h): 2.40 | Absorbance, formation of formazan dyes (Means) ([10]; 1 h): 3.33 | Absorbance, formation of formazan dyes (Means) ([10]; 2 h): 3.42 | Absorbance, formation of formazan dyes (Means) ([10]; 3 h): 3.38 | Absorbance, formation of formazan dyes (Means) ([10]; 4 h): 3.38 | Absorbance, formation of formazan dyes (Means) ([10]; 6 h): 3.27 | Absorbance, formation of formazan dyes (Means) ([10]; 8 h): 3.26 | Absorbance, formation of formazan dyes (Means) ([10]; 10 h): 3.18 | Absorbance, formation of formazan dyes (Means) ([10]; 12 h): 3.09 | Absorbance, formation of formazan dyes (Means) ([11]; 0 h): 0.34 | Absorbance, formation of formazan dyes (Means) ([11]; 1 h): 0.36 | Absorbance, formation of formazan dyes (Means) ([11]; 2 h): 0.33 | Absorbance, formation of formazan dyes (Means) ([11]; 3 h): 0.33 | Absorbance, formation of formazan dyes (Means) ([11]; 4 h): 0.41 | Absorbance, formation of formazan dyes (Means) ([11]; 6 h): 0.48 | Absorbance, formation of formazan dyes (Means) ([11]; 8 h): 0.48 | Absorbance, formation of formazan dyes (Means) ([11]; 10 h): 0.52 | Absorbance, formation of formazan dyes (Means) ([11]; 12 h): 0.51 | Formation of formazan dyes, absorbance, Means 0 h ([12]; 0 h): 3.01 | Formation of formazan dyes, absorbance, Means 1 h ([12]; 1 h): 3.01 | Formation of formazan dyes, absorbance, Means 2 h ([12]; 2 h): 3.00 | Formation of formazan dyes, absorbance, Means 3 h ([12]; 3 h): 3.00 | Formation of formazan dyes, absorbance, Means 4 h ([12]; 4 h): 3.07 | Formation of formazan dyes, absorbance, Means 6 h ([12]; 6 h): 3.09 | Formation of formazan dyes, absorbance, Means 8 h ([12]; 8 h): 3.17 | Formation of formazan dyes, absorbance, Means 10 h ([12]; 10 h): 3.08 | Formation of formazan dyes, absorbance, Means 12 h ([12]; 12 h): 3.20
